Measurements as given in ChEMBL document CHEMBL6103538, “Carbonic anhydrases: Moiety appended derivatives, medicinal and pharmacological implications” (Bioorg Med Chem, 2024).

How the values were obtained:
Carbonic anhydrase 1 [1] = biological target: T1, Carbonic anhydrase 1 (Homo sapiens, UniProt P00915); experiment: Binding affinity to human CA I assessed as inhibition constant
Carbonic anhydrase 2 [2] = biological target: T2, Carbonic anhydrase 2 (Homo sapiens, UniProt P00918); experiment: Binding affinity to human CA II assessed as inhibition constant
MCF7 [3] = experiment: Antiproliferative activity against human MCF7 cells assessed as reduction in cell viability by SRB assay; format: functional, cell-based
HepG2 [4] = experiment: Antiproliferative activity against human HepG2 cells assessed as reduction in cell viability by SRB assay; format: functional, cell-based
A549 = experiment: Antiproliferative activity against human A549 cells assessed as reduction in cell viability by SRB assay; format: functional, cell-based
Carbonic anhydrase 1 [5] = biological target: T1, Carbonic anhydrase 1; experiment: Binding affinity to human CA I assessed as inhibition constant by spectrophotometric analysis
MDA-MB-231 [6] = experiment: Anticancer activity against human MDA-MB-231 cells assessed as reduction in cell viability measured after 72 hrs by MTT assay; format: functional, cell-based; conditions: MDA-MB-231, 72 h
HepG2 [7] = experiment: Anticancer activity against human HepG2 cells assessed as reduction in cell viability measured after 72 hrs by MTT assay; format: functional, cell-based; conditions: HepG2, 72 h
MCF7 [8] = experiment: Anticancer activity against human MCF7 cells assessed as reduction in cell viability measured after 72 hrs by MTT assay; format: functional, cell-based; conditions: MCF7, 72 h
Homo sapiens [9] = organism: Homo sapiens; experiment: Selectivity ratio of IC50 for human CA I to IC50 for human CA II
Carbonic anhydrase 1 [10] = biological target: T1, Carbonic anhydrase 1; experiment: Inhibition of human Carbonic anhydrase 1
Carbonic anhydrase 9 [11] = biological target: T3, Carbonic anhydrase 9 (Homo sapiens, UniProt Q16790); experiment: Binding affinity human CA IX assessed as inhibition constant
Carbonic anhydrase 12 [12] = biological target: T4, Carbonic anhydrase 12 (Homo sapiens, UniProt O43570); experiment: Binding affinity to human CA XII assessed as inhibition constant
Carbonic anhydrase 12 [13] = biological target: T4, Carbonic anhydrase 12; experiment: Binding affinity to human recombinant CA XII assessed as inhibition constant
Carbonic anhydrase 9 [14] = biological target: T3, Carbonic anhydrase 9; experiment: Binding affinity to human recombinant CA IX assessed as inhibition constant
MCF7 [15] = experiment: Anticancer activity against human MCF7 cells assessed as reduction in cell viability under hypoxia condition; format: functional, cell-based
MDA-MB-231 [16] = experiment: Anticancer activity against human MDA-MB-231 cells assessed as reduction in cell viability under hypoxia condition; format: functional, cell-based
[17] = Inhibition of Hsp70 (unknown origin); design: species or system Homo sapiens
MCF7 [18] = experiment: Anticancer activity against human MCF7 cells assessed as reduction in cell viability under normoxia condition; format: functional, cell-based
MDA-MB-231 [19] = experiment: Anticancer activity against human MDA-MB-231 cells assessed as reduction in cell viability under normoxia condition; format: functional, cell-based
Carbonic anhydrase 2 [20] = biological target: T2, Carbonic anhydrase 2; experiment: Binding affinity to human CA II assessed as inhibition constant pre-incubated for 15 mins by stopped-flow CO2-hydrase assay method
[21] = biological target: Carbonic anhydrase 5B, mitochondrial (Homo sapiens, UniProt Q9Y2D0); experiment: Binding affinity to human CA VB-catalysed CO2 hydration activity assessed as inhibition constant pre-incubated for 15 mins by stopped-flow instrument method
Carbonic anhydrase 2 [22] = biological target: T2, Carbonic anhydrase 2; experiment: Inhibition of human Carbonic anhydrase 2
Carbonic anhydrase 2 [23] = biological target: T2, Carbonic anhydrase 2; experiment: Binding affinity to human Carbonic anhyrase 2 assessed as inhibition constant pre-incubated for 10 mins by stopped-flow instrument based assay
Carbonic anhydrase 1 [24] = biological target: T1, Carbonic anhydrase 1; experiment: Binding affinity to human Carbonic anhyrase 1 assessed as inhibition constant pre-incubated for 10 mins by stopped-flow instrument based assay
HT-29 = experiment: Cytotoxicity against human HT-29 cells assessed as reduction in cell viability incubated for 24 hrs by MTT assay; format: functional, cell-based; conditions: HT-29, 24 h
PC-3 = experiment: Cytotoxicity against human PC-3 cells assessed as reduction in cell viability incubated for 24 hrs by MTT assay; format: functional, cell-based; conditions: PC-3, 24 h
Carbonic anhydrase 4 = Carbonic anhydrase 4 (Homo sapiens, UniProt P22748); experiment: Binding affinity to human CA4 assessed as inhibition constant
MCF7 [25] = experiment: Cytotoxicity against human MCF7 cells assessed as reduction in cell viability incubated for 24 hrs by MTT assay; format: functional, cell-based; conditions: MCF7, 24 h
Homo sapiens [26] = organism: Homo sapiens; experiment: Selectivity ratio of IC50 for human CA IX to IC50 for human CA II
Carbonic anhydrase 9 [27] = biological target: T3, Carbonic anhydrase 9; experiment: Inhibition of human Carbonic anhydrase IX
Carbonic anhydrase 2 [28] = biological target: T2, Carbonic anhydrase 2; experiment: Binding affinity to human CA II assessed as inhibition constant by spectrophotometric analysis
HCT-116 = experiment: cells; format: functional, cell-based; conditions: Homo sapiens
Description: Cytotoxicity against human HCT-116 cells

MCF7 [29] = experiment: cells; format: functional, cell-based; conditions: Homo sapiens

Carbonic anhydrase 5B, mitochondrial, sequence (Q9Y2D0 whole entry): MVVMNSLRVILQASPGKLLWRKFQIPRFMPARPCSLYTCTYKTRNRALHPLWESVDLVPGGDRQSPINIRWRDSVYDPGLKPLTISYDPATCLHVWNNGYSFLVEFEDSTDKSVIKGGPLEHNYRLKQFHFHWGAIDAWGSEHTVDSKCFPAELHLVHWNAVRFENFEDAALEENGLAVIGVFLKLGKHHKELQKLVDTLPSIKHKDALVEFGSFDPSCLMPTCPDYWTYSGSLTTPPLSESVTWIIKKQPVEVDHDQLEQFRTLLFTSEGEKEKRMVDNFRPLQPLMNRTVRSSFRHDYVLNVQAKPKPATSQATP
T1 sequence (P00915 whole entry): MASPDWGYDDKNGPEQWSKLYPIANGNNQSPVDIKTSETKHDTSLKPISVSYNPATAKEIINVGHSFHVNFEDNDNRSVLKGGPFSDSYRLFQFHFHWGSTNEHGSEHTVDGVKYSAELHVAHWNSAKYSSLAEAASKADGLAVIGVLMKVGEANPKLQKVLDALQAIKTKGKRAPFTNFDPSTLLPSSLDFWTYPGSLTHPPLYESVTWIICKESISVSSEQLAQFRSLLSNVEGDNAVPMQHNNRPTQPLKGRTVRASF
T4 sequence (O43570 whole entry): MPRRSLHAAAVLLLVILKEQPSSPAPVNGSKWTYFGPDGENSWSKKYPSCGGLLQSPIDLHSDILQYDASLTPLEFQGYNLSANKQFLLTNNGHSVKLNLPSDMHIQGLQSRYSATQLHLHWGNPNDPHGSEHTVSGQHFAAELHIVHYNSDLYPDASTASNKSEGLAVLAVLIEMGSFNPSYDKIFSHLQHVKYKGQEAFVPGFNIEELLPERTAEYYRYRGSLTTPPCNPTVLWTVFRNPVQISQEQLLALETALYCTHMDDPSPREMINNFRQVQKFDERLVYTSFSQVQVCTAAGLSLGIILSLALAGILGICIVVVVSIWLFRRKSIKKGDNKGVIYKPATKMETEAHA
Carbonic anhydrase 4, sequence (P22748 whole entry): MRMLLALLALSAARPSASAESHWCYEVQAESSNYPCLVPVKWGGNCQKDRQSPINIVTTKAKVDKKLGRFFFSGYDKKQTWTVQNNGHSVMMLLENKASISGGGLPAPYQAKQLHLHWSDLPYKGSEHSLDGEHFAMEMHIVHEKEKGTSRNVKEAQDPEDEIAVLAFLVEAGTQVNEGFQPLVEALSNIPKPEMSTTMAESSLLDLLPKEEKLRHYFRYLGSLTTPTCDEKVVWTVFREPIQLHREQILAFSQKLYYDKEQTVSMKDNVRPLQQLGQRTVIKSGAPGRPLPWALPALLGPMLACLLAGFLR

CC(=O)c1ccc(N/N=N/c2ccc(S(=O)(=O)NC(=N)N)cc2)cc1
Ki (Carbonic anhydrase 1 [1]): 6.44 nM

Cn1c(N)c(NCc2cc(I)ccc2O)c(=O)n(C)c1=O
Ki (Carbonic anhydrase 2 [2]): 16.3 nM

Cc1ccc(-c2c(/C=N/NC(=O)C34CC5CC(CC(C5)C3)C4)n[nH]c2-c2ccccc2)cc1
IC50 (MCF7 [3]): < 5 µM
IC50 (HepG2 [4]): < 5 µM
IC50 (A549): < 5 µM

O=C(NC(=S)Nc1ccc(S(=O)(=O)Nc2nccs2)cc1)c1ccccc1
Ki (Carbonic anhydrase 1 [5]): 20.7 nM

COc1ccc(-c2cs/c(=N\C(=O)c3c(F)cccc3F)n2C2=C(N)C(=O)c3ccccc3C2=O)cc1
Ki (Carbonic anhydrase 2 [2]): 55.3 nM

CC(=O)C(C)/C(C)=N/NC(=O)C12CC3CC(CC(C3)C1)C2 (stereo unspecified)
IC50 (MCF7 [3]): < 5 µM
IC50 (HepG2 [4]): < 5 µM
IC50 (A549): < 5 µM

NS(=O)(=O)c1ccc(NC(=S)NC(=O)c2ccc3c(c2)C(=O)c2ccccc2C3=O)cc1
IC50 (MDA-MB-231 [6]): 46.2 µM
IC50 (HepG2 [7]): 28.1 µM
IC50 (MCF7 [8]): 69.4 µM

COC(=O)[C@H]1O[C@@H](NC(=O)c2ccc(S(N)(=O)=O)cc2)[C@H](O)[C@@H](O)[C@@H]1O
Ratio IC50 (Homo sapiens [9]): 44.4

CCCCCCCCn1c2ccccc2c2cc(/N=C/c3ccc(O)c(O)c3)ccc21
IC50 (Carbonic anhydrase 1 [10]): 32.1 µM

CCOC(=O)c1sc2ncnc(Nc3ccc(S(N)(=O)=O)cc3)c2c1C
Ki (Carbonic anhydrase 2 [2]): 8.6 nM
Ki (Carbonic anhydrase 9 [11]): 13.8 nM
Ki (Carbonic anhydrase 12 [12]): 19 nM

Nc1nn(C(=O)C23CC4CC(CC(C4)C2)C3)c(N)c1/N=N/c1ccccc1
IC50 (MCF7 [3]): < 5 µM
Ki (Carbonic anhydrase 12 [13]): 140 nM
IC50 (HepG2 [4]): < 5 µM
Ki (Carbonic anhydrase 9 [14]): 85 nM

N=C(N)NS(=O)(=O)c1ccc(/N=N/Nc2c(F)c(F)c(F)c(F)c2F)cc1
Ki (Carbonic anhydrase 2 [2]): 8.16 nM

COc1cccc(NC(=O)Nc2cccc(OC)c2)c1
IC50 (MCF7 [15]): 1.1 µM
IC50 (MDA-MB-231 [16]): 12.4 µM
IC50 [17]: 15.3 µM
IC50 (MCF7 [18]): 3.7 µM
IC50 (MDA-MB-231 [19]): 6.3 µM

NS(=O)(=O)c1ccc(C(=O)Nc2ncc(C(=O)NCCN3CCOCC3)s2)cc1
Ki (Carbonic anhydrase 2 [2]): 6.51 nM
Ki (Carbonic anhydrase 1 [1]): 45.9 nM

NS(=O)(=O)c1ccc(-c2ccc(-c3cnc(C(=O)N4CCNCC4)o3)s2)cc1
Ki (Carbonic anhydrase 2 [20]): 4 nM

NS(=O)(=O)c1ccc(C(=O)Nc2nc(C(=O)OCCCN3CCOCC3)cs2)cc1
Ki (Carbonic anhydrase 2 [2]): 6.92 nM
Ki (Carbonic anhydrase 1 [1]): 27.3 nM

Cc1sc2ncnc(Nc3ccc(S(N)(=O)=O)cc3)c2c1C
Ki (Carbonic anhydrase 9 [11]): 16.1 nM

CCOc1ccccc1NC(=O)SOS(N)(=O)=O
Ki [21]: 271 nM

NS(=O)(=O)c1ccc(C(=O)Nc2nc(C(=O)OCCN3CCOCC3)cs2)cc1
Ki (Carbonic anhydrase 2 [2]): 5.97 nM
Ki (Carbonic anhydrase 1 [1]): 49.8 nM

CCCCCCCCn1c2ccccc2c2cc(/N=C/c3cccc(O)c3O)ccc21
IC50 (Carbonic anhydrase 2 [22]): 21.8 µM

Cc1ccc(C(=O)/C=C/c2cn(Cc3cn(-c4ccc(S(N)(=O)=O)cc4)nn3)c3ccccc23)cc1
Ki (Carbonic anhydrase 2 [23]): 36.2 nM
Ki (Carbonic anhydrase 1 [24]): 50.4 nM

Cc1ccc(C(C)C)c(OCc2cn(CCCCOc3ccc4ccc(=O)oc4c3)nn2)c1
IC50 (HT-29): 12.1 µM
IC50 (PC-3): 9.4 µM

COc1cccc(NC(=O)Nc2ccc(S(N)(=O)=O)cc2)c1
IC50 (MCF7 [15]): 14.4 µM
IC50 (MDA-MB-231 [16]): 12.5 µM
Ki (Carbonic anhydrase 9 [11]): 4.1 nM
IC50 [17]: 19.4 µM
IC50 (MCF7 [18]): 4.6 µM
IC50 (MDA-MB-231 [19]): 6.3 µM
Ki (Carbonic anhydrase 12 [12]): 9.1 nM

Cc1c(/C=N/Nc2nc(-c3ccc(F)cc3)cs2)nnn1-c1cccc(S(N)(=O)=O)c1
Ki (Carbonic anhydrase 4): 88 nM

COc1ccccc1NC(=O)SOS(N)(=O)=O
Ki [21]: 345 nM

Cc1ccc(C(C)C)cc1OCc1cn(CCCCCCOc2ccc3ccc(=O)oc3c2)nn1
IC50 (MCF7 [25]): 2480 nM

Cc1nn(-c2ccc(S(N)(=O)=O)cc2)c2c1C(c1c(F)cccc1F)C(C#N)=C(N)O2 (stereo unspecified)
Ki (Carbonic anhydrase 9 [11]): 19 nM
Ratio IC50 (Homo sapiens [9]): 14.3
Ratio IC50 (Homo sapiens [26]): 7.42

O=C(NC(=S)Nc1ccc(S(=O)(=O)Nc2nccs2)cc1)c1ccc(F)cc1
Ki (Carbonic anhydrase 1 [5]): 14 nM

NS(=O)(=O)c1ccc(-n2cc(Cn3cc(/C=C/C(=O)c4ccc(Br)cc4)c4ccccc43)nn2)cc1
Ki (Carbonic anhydrase 2 [23]): 468 nM
Ki (Carbonic anhydrase 1 [24]): 18.8 nM

NC1=C(n2c(-c3ccc(Cl)cc3)cs/c2=N\C(=O)c2c(F)cccc2F)C(=O)c2ccccc2C1=O
Ki (Carbonic anhydrase 1 [1]): 67.9 nM

Cn1c(N)c(NCc2ccc(Br)cc2O)c(=O)n(C)c1=O
Ki (Carbonic anhydrase 1 [1]): 36.1 nM

Clc1ccccc1-c1nc2cc(-c3ccc4[nH]c(-c5ccccc5Cl)nc4c3)ccc2[nH]1
IC50 (Carbonic anhydrase 9 [27]): 5.23 µM

Cc1ccc(C)c(NC(=O)SOS(N)(=O)=O)c1
Ki [21]: 516 nM

COc1cccc(C(=O)/C=C/c2cn(Cc3cn(-c4ccc(S(N)(=O)=O)cc4)nn3)c3ccccc23)c1
Ki (Carbonic anhydrase 2 [23]): 716 nM
Ki (Carbonic anhydrase 1 [24]): 38.3 nM

Cc1ccnc(NS(=O)(=O)c2ccc(NC(=S)NC(=O)c3ccc(F)cc3)cc2)n1
Ki (Carbonic anhydrase 2 [28]): 8.15 nM

NS(=O)(=O)c1ccc(CCNC(=O)c2ccc3c(c2)C(=O)c2ccccc2C3=O)cc1
IC50 (Carbonic anhydrase 2 [22]): 0.0212 µM

C/C(=N\Nc1nc(-c2ccc(C)cc2)cs1)c1nnn(-c2ccc(S(N)(=O)=O)cc2)c1C
Ki (Carbonic anhydrase 1 [1]): 40.6 nM

CCOC(=O)c1sc(NC(=O)c2ccc(S(N)(=O)=O)cc2)nc1C(F)(F)F
Ki (Carbonic anhydrase 2 [2]): 7.36 nM
Ki (Carbonic anhydrase 1 [1]): 38.5 nM

COc1ccc(C2C(C#N)=C(N)Oc3c2c(C)nn3-c2ccc(S(N)(=O)=O)cc2)cc1O (stereo unspecified)
IC50 (HCT-116): 4620 nM
Ki (Carbonic anhydrase 9 [11]): 12 nM
IC50 (MCF7 [29]): 1880 nM

Cc1ccc(NC(=O)SOS(N)(=O)=O)cc1
Ki [21]: 462 nM

Cc1nn(-c2ccc(S(N)(=O)=O)cc2)c2c1C(c1ccc(F)cc1F)C(C#N)=C(N)O2 (stereo unspecified)
IC50 (HCT-116): 1300 nM
Ki (Carbonic anhydrase 9 [11]): 19 nM
IC50 (MCF7 [29]): 1690 nM
